{"source": "paper PMC12225012", "about": "“Identification and Application of a Novel Patulin Degrading Enzyme From Meyerozyma guilliermondii” (Advanced Science, 2025)", "molecular_target": "T1, MgSDR1 (Meyerozyma guilliermondii, UniProt A5DPG9)", "T1 construct": "gene PGUG_05170; pET-30a(+) BamHI/XhoI, N-terminal 6xHis tag, E. coli Rosetta (DE3), imidazole-eluted, approx. 40 kDa with tag; catalytic triad Ser174-Tyr188-Lys192; GXXXGXG and YXXXK motifs", "T1 sequence (A5DPG9 entry or part of it)": "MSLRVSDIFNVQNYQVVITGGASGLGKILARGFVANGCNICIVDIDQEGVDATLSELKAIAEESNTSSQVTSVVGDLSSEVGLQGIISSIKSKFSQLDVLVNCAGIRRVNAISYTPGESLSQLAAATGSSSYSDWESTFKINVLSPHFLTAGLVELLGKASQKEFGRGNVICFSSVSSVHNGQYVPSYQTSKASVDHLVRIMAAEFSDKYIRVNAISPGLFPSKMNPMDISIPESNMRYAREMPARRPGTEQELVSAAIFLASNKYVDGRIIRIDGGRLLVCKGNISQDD", "test": "degradation kinetics (details in supplement)", "assay_type": "biochemical", "conditions": "co-substrate NADPH; pH and temperature of the kinetic assay not given in the main text"}
{"smiles": "O=C1C=C2C(=CCOC2O)O1", "note": "(stereo not shown) [PAT]", "values": [{"measurement": "Km", "result": 1420, "unit": "µM"}]}
